Measurements taken from patent publication US20240174690A1, “ANNULATED 2-AMINO-3-CYANO THIOPHENES AND DERIVATIVES FOR THE TREATMENT OF CANCER” (BOEHRINGER INGELHEIM INTERNATIONAL GMBH, priority 2021, published 2024).

Legend:
KRAS (G12C)::SOS1 = KRAS (G12C)::SOS1 (Homo sapiens (Human), UniProt P01116, C118S/C51S/C80L/G12C); test: KRAS::SOS1 AlphaScreen binding assay, KRAS G12C
Method in brief: (§1)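 Compounds (up to 100 μM, eleven fivefold dilutions in duplicate) were incubated 30 min with KRAS 1-169 (10 nM, or 7.5 nM for G12C), GST-SOS1 564-1049 (5 nM for G12D/G12C, 10 nM for others) and 10 μM GDP in PBS buffer with BSA and Tween. Donor/acceptor beads were then added for 60 min at room temperature, and IC50 came from a 4-parameter fit of the AlphaScreen signal.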

KRAS (G12D)::SOS1 = KRAS (G12D)::SOS1 (Homo sapiens (Human), UniProt P01116, G12D); test: KRAS::SOS1 AlphaScreen binding assay, KRAS G12D
Chain of KRAS (G12D)::SOS1 (P01116 other isoform, or with tags, fused parts or gaps G12D): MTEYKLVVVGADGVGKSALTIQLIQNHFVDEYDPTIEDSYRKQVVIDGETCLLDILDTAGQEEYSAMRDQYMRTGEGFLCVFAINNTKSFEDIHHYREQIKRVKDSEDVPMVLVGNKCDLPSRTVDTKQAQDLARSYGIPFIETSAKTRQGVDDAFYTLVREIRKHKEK
Method in brief: as §1

[1] = Metabolic (microsomal) stability assay, human liver microsomes (HLM); format: in vitro ADME; conditions: predicted clearance as percent of liver blood flow, 1 μM
Method in brief: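 LC-MS/MS tracked parent disappearance at 0, 5, 15, 30 and 60 min in NADPH-initiated incubations with 1 mg/mL human microsomal protein and 1 μM compound at 37°C, pH 7.5. First-order fits gave intrinsic clearance, which was scaled up and reported as % QH. NADPH-free controls were also run.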

Chain of KRAS (G12C)::SOS1 (P01116 other isoform, or with tags, fused parts or gaps G12C/C51S/C80L/C118S): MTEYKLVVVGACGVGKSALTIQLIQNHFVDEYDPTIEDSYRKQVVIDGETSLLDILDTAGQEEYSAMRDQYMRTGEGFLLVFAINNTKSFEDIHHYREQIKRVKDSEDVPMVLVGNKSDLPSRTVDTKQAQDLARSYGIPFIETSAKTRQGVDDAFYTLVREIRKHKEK

Row | SMILES | IC50 (KRAS (G12C)::SOS1) | IC50 (KRAS (G12D)::SOS1) | HLM QH [1]
1 | C[C@H](Oc1cc(-c2ccn(C)n2)nc(-c2noc3c2CCC[C@@]32CCCc3sc(N)c(C#N)c32)n1)[C@@H]1CCCN1C [II-96] | 2 nM | 2 nM | <24%
2 | C[C@H](Oc1cc(-c2cccc(CO)c2)nc(-c2noc3c2CCC[C@@]32CCCc3sc(N)c(C#N)c32)n1)[C@@H]1CCCN1C [II-97] | 3 nM | 13 nM | <24%
3 | C[C@H](Oc1cc(-c2ccn(C3CC3)n2)nc(-c2noc3c2CCC[C@@]32CCCc3sc(N)c(C#N)c32)n1)[C@@H]1CCCN1C [II-98] | 2 nM | 4 nM | <24%
4 | C[C@H](Oc1cc(N2CCC(C#N)C2)nc(-c2noc3c2CCC[C@@]32CCCc3sc(N)c(C#N)c32)n1)[C@@H]1CCCN1C (stereo partly drawn) [II-99] | 3 nM | 4 nM | <24%
5 | C[C@H](Oc1cc(-c2cn(C3COC3)nn2)nc(-c2noc3c2CCC[C@@]32CCCc3sc(N)c(C#N)c32)n1)[C@@H]1CCCN1C [II-100] | 3 nM | 6 nM | 28%
6 | C[C@H](Oc1cc(-c2ccc(N)nc2)nc(-c2noc3c2CCC[C@@]32CCCc3sc(N)c(C#N)c32)n1)[C@@H]1CCCN1C [II-101] | 2 nM | 4 nM | 31%
7 | C[C@H](Oc1cc(-n2ccc(C#N)n2)nc(-c2noc3c2CCC[C@@]32CCCc3sc(N)c(C#N)c32)n1)[C@@H]1CCCN1C [II-102] | 2 nM | 3 nM | 51%
8 | Cc1nc(-c2cc(O[C@@H](C)[C@@H]3CCCN3C)nc(-c3noc4c3CCC[C@@]43CCCc4sc(N)c(C#N)c43)n2)cs1 [II-103] | 2 nM | 2 nM | <24%
9 | C[C@H](Oc1cc(-c2ccn3ncnc3c2)nc(-c2noc3c2CCC[C@@]32CCCc3sc(N)c(C#N)c32)n1)[C@@H]1CCCN1C [II-104] | 2 nM | 5 nM | <24%
10 | Cc1cn(-c2cc(O[C@@H](C)[C@@H]3CCCN3C)nc(-c3noc4c3CCC[C@@]43CCCc4sc(N)c(C#N)c43)n2)nn1 [II-106] | 4 nM | 9 nM | 44%
11 | CO[C@@H]1C[C@@H]([C@H](C)Oc2cc(-c3ccn(C4COC4)n3)nc(-c3noc4c3CCC[C@@]43CCCc4sc(N)c(C#N)c43)n2)N(C)C1 [II-107] | 2 nM | 4 nM | 45%
12 | C[C@H](Oc1cc(-c2ccn(C3COC3)n2)nc(-c2noc3c2CCC[C@@]32CCCc3sc(N)c(C#N)c32)n1)[C@@H]1CCCN1C [II-109] | 2 nM | 3 nM | <24%
13 | C[C@H](Oc1cc(-n2ccc(Br)n2)nc(-c2noc3c2CCC[C@@]32CCCc3sc(N)c(C#N)c32)n1)[C@@H]1CCCN1C [II-110] | 2 nM | 3 nM | 47%
14 | C[C@H](Oc1cc(-c2cnsc2)nc(-c2noc3c2CCC[C@@]32CCCc3sc(N)c(C#N)c32)n1)[C@@H]1CCCN1C [II-111] | 2 nM | 3 nM | <24%
15 | C[C@H](O)Cn1ccc(-c2cc(O[C@@H](C)[C@@H]3CCCN3C)nc(-c3noc4c3CCC[C@@]43CCCc4sc(N)c(C#N)c43)n2)n1 [II-112] | 1 nM | 1 nM | <24%
16 | C[C@H](Oc1cc(-n2cc(Cn3ccnc3)nn2)nc(-c2noc3c2CCC[C@@]32CCCc3sc(N)c(C#N)c32)n1)[C@@H]1CCCN1C [II-113] | 2 nM | 2 nM | 43%
17 | COC(=O)c1ccc(-c2cc(O[C@@H](C)[C@@H]3CCCN3C)nc(-c3noc4c3CCC[C@@]43CCCc4sc(N)c(C#N)c43)n2)o1 [II-114] | 2 nM | 3 nM | 34%
18 | C[C@H](Oc1cc(-c2cn(C3CCOCC3)nn2)nc(-c2noc3c2CCC[C@@]32CCCc3sc(N)c(C#N)c32)n1)[C@@H]1CCCN1C [II-115] | 8 nM | 13 nM | <24%
19 | C[C@H](Oc1cc(-n2ccncc2=O)nc(-c2noc3c2CCC[C@@]32CCCc3sc(N)c(C#N)c32)n1)[C@@H]1CCCN1C [II-116] | 2 nM | 2 nM | 75%
20 | C[C@H](Oc1cc(-c2ccn(C[C@@H](C)O)n2)nc(-c2noc3c2CCC[C@@]32CCCc3sc(N)c(C#N)c32)n1)[C@@H]1CCCN1C [II-117] | 1 nM | 2 nM | <24%
21 | C[C@H](Oc1cc(-n2cc(C3CC3)nn2)nc(-c2noc3c2CCC[C@@]32CCCc3sc(N)c(C#N)c32)n1)[C@@H]1CCCN1C [II-118] | 2 nM | 4 nM | 25%
22 | C[C@H](Oc1cc(-n2ccc(-c3ccccn3)n2)nc(-c2noc3c2CCC[C@@]32CCCc3sc(N)c(C#N)c32)n1)[C@@H]1CCCN1C [II-119] | 2 nM | 2 nM | <24%
23 | C[C@H](Oc1cc(-n2ccnc2)nc(-c2noc3c2CCC[C@@]32CCCc3sc(N)c(C#N)c32)n1)[C@@H]1C[C@@H](F)CN1C [II-120] | 2 nM | 9 nM | 47%
24 | COCc1cn(-c2cc(O[C@@H](C)[C@@H]3CCCN3C)nc(-c3noc4c3CCC[C@@]43CCCc4sc(N)c(C#N)c43)n2)nn1 [II-121] | 2 nM | 3 nM | 39%
25 | CNC(=O)c1cn(-c2cc(O[C@@H](C)[C@@H]3CCCN3C)nc(-c3noc4c3CCC[C@@]43CCCc4sc(N)c(C#N)c43)n2)nn1 [II-122] | 2 nM | 4 nM | 35%
26 | C[C@H](Oc1cc(-n2cc(-c3cccnc3)nn2)nc(-c2noc3c2CCC[C@@]32CCCc3sc(N)c(C#N)c32)n1)[C@@H]1CCCN1C [II-123] | 2 nM | 8 nM | 28%
27 | C[C@H](Oc1cc(-n2cc(Cn3cncn3)nn2)nc(-c2noc3c2CCC[C@@]32CCCc3sc(N)c(C#N)c32)n1)[C@@H]1CCCN1C [II-124] | 2 nM | 2 nM | 37%
